Laboratory results reported in patent US7923585B2, “Menthol derivative and cooling agent composition comprising the same” (Takasago International Corporation, priority 2004, dated 2011).

Tested on: expert panelists (oral evaluation)
Assay: Sensory evaluation: oral evaluation of an aqueous solution by expert panelists
Format: in vivo, human
Conditions: 20 ppm, 7 expert panelists, all seven gave this evaluation
Method: Oral evaluation of an aqueous solution of 2-(2-l-menthyloxyethyl)ethanol obtained in Example 1 in a concentration of 20 ppm was carried out by 7 expert panelists having 5 years or longer experience.

## CC(C)[C@@H]1CC[C@@H](C)C[C@H]1OCCOCCO [2-(2-l-menthyloxyethyl)ethanol]
  cool and refreshing feeling quality (oral evaluation): excellent cool and refreshing feeling quality
